From PMC8769072, “Proteome‐scale mapping of binding sites in the unstructured regions of the human proteome” (Molecular Systems Biology, 2022)

Tested on: immobilized GST-tagged bait protein domains
Assay: ProP-PD phage selections (HD2 P8, sublibraries, HD2 P3, HD1 P8) with NGS and confidence level
Type: binding, human
Details: for HD confidence / HD count proportions / HD mean counts: library HD
[1] = bait CALM1_EF-hand__P0DP23_2_149, library HD2, benchmarking set of validated motif instances, TRUE = motif instance recovered in the ProP-PD selection
[2] = library HD2, bait EPS15_EH__P42566_121_215, best matching peptide
[3] = library HD2, bait EPS15_EH__P42566_121_215, confidence level of best matching peptide (4 High, 2-3 Medium, 1 Low)
[4] = library HD2, bait EPS15_EH__P42566_121_215, whether the validated benchmark motif instance was recovered in the ProP-PD selection (TRUE/FALSE)
[5] = bait PABP-B_PABP__P11940_544_623, HD2 library, confidence level (1-4) of best matching selected peptide
[6] = bait PABP-B_PABP__P11940_544_623, HD2 library, specificity score of best matching selected peptide
[7] = bait PABP-B_PABP__P11940_544_623, HD2 library, whether the validated benchmark motif instance was recovered in the ProP-PD selection (TRUE/FALSE)
[8] = bait SIN3A_PAH__Q96ST3_295_383, HD2 library, whether the validated benchmark motif instance was recovered in the ProP-PD selection (TRUE/FALSE)
[9] = library HD2, bait YAP1_WW_1_P46937_169_207, validated benchmark motif instance, in_library_check TRUE, TRUE/FALSE = instance recovered in ProP-PD selection
[10] = HD2 library, bait TNKS_TANK-peptide-bind__O95271_174_649, known motif instance of the benchmarking set found (TRUE) or not found (FALSE) among selected peptides
[11] = bait ANKRA2_Ank__Q9H9E1_142_313
[12] = bait ANKRA2_Ank__Q9H9E1_142_313, mean normalised NGS counts
[13] = bait ANKRA2_Ank__Q9H9E1_142_313, mean raw NGS counts, all selections
[14] = HD2 library, bait CALM1_EF-hand__P0DP23_2_149, benchmark motif instance, in_library_check FALSE, in_library_coverage 0
[15] = bait PTK2_Focal-AT__Q05397_891_1050, HD2 library, whether the validated benchmark motif instance was recovered in the ProP-PD selection (TRUE/FALSE)
[16] = HD2 library, bait TLN1_PTB__Q9Y490_309_401, known motif instance of the benchmarking set found (TRUE) or not found (FALSE) among selected peptides
[17] = library HD2, bait KLC1_TPR__Q07866_203_497, whether the validated benchmark motif instance was recovered in the ProP-PD selection (TRUE/FALSE)
[18] = bait AP2B1_adaptin__P63010_700_937, library HD2, benchmarking set of validated motif instances, TRUE = motif instance recovered in the ProP-PD selection
[19] = bait KPNA4_Arm (O00629 68-487), HD2 library, benchmark motif instance recovered in the ProP-PD selection (TRUE/FALSE)

## LNKYQGFIFDIVTK [SCN5A]
[1]
  motif_found: FALSE

## LNPFLTKSSGDVHLSI
[2]
  best_specificity: 1
[3]
  best_confidence: 4
[4]
  motif_found: TRUE

## LNPNAEVWGAPVLHLE
[5]
  best_confidence: 4
[6]
  best_specificity: 1
[7]
  motif_found: TRUE

## LNQDFSGFQLLVDVALKRAAEM
[8]
  motif_found: FALSE

## LPIPGTPPPNYDSLRLQP
Bait NEDD4_WW_4_P46934_890_928, HD2 library, whether the validated benchmark motif instance was recovered in the ProP-PD selection (TRUE/FALSE)
  motif_found: FALSE
[9]
  motif_found: FALSE

## LPLEFSDDLDVVGDGMQC
Library HD2, bait WDR5_WD_1234567_P61964_21_334, validated benchmark motif instance, in_library_check TRUE, TRUE/FALSE = instance recovered in ProP-PD selection
  motif_found: FALSE

## LPLYTSPSLPNITLGLP,PLPLYTSPSLPNITLGLPATGPSA [HDAC4]
Bait ANKRA2_Ank__Q9H9E1_142_313, library HD2, benchmarking set of validated motif instances, TRUE = motif instance recovered in the ProP-PD selection
  motif_found: TRUE

## LPRTQPDGTSVPGEPA
HD2 library, bait TNKS_TANK-peptide-bind__O95271_174_649, best matching selected peptide
  best_specificity: 1
HD2 library, bait TNKS_TANK-peptide-bind__O95271_174_649, confidence level of best matching selected peptide
  best_confidence: 2
[10]
  motif_found: TRUE

## LQDVQPSPINPFSAFF
[2]
  best_specificity: 1
[3]
  best_confidence: 2
[4]
  motif_found: TRUE

## LQLPSLDDQVIPARLP
[11]
  HD confidence: 3
[12]
  HD count proportions: 0.001339
[13]
  HD mean counts: 12.75

## LQQSIAREPSAPSIPTPAYQ
Library HD2, bait TSG101_UEV__Q99816_1_145, validated benchmark motif instance, in_library_check TRUE, TRUE/FALSE = instance recovered in ProP-PD selection
  motif_found: FALSE

## LQYFRDHINDIIKIQAFIRANKARDDYKTLINA [IQGAP1 836-854]
[14]
  motif_found: FALSE

## LRRGQILWFRGLNRIQTQIDVINTFQTGASFKGVLRRQNMGQHLDVKLVPSSSYIKVVKAFHSS [ATP2B4]
[1]
  motif_found: FALSE

## LSELDRLLLELN
[15]
  motif_found: FALSE

## LSKLDVLVLAASYIAH
Bait SIN3A_PAH__Q96ST3_295_383, library HD2 P8 nucleus
  HD2_nucleus confidence: 4

## LSKMQQNGYENPTYKFFEQMQN
[16]
  motif_found: FALSE

## LSLGSAGERGEAEGCPPSREAE
[10]
  motif_found: FALSE

## LSSPLVPGNPFEEPTCINP
[4]
  motif_found: FALSE

## LSVNAPEFYPSGYSSS
[5]
  best_confidence: 3
[6]
  best_specificity: 1
[7]
  motif_found: TRUE

## LSVSPARWAEEYLEQSEEK
Bait PEX14_Pex14__O75381_16_84, HD2 library, whether the validated benchmark motif instance was recovered in the ProP-PD selection (TRUE/FALSE)
  motif_found: FALSE

## LSWPDLLSDPSIVGSN
Bait CALM1 EF-hand (P0DP23, 2-149), HD2 library selection with 1mM_CaCl, confidence level (4 = High, 2 or 3 = Medium, 1 = Low)
  HD2-1mM_CaCl confidence: 3
Bait CALM1 EF-hand (P0DP23, 2-149), HD2 library selection, confidence level (4 = High, 2 or 3 = Medium, 1 = Low)
  HD2 confidence: 3

## LYKEATSTFTNITYRGT-----
[16]
  motif_found: FALSE

## LYNFPQSPPAQYSPMH
Bait CEP55_EABR__Q53EZ4_160_217, HD2 P8 nucleocytoplasmic sublibrary, confidence level (4 = High, 2-3 = Medium, 1 = Low)
  HD2_nc confidence: 4
Bait CEP55_EABR__Q53EZ4_160_217, HD2 P8 nucleocytoplasmic sublibrary, mean NGS counts over replicate selections
  HD2_nc mean counts: 101.3
Bait CEP55_EABR__Q53EZ4_160_217, HD2 P8 nucleocytoplasmic sublibrary, mean proportion of NGS counts
  HD2_nc count proportions: 0.001637

## LYPTDCPPSYEAVMGL
Bait NEDD4_WW_4_P46934_890_928, HD2 P3 library, confidence level (4 = High, 2-3 = Medium, 1 = Low)
  p3_HD2 confidence: 3
Bait NEDD4_WW_4_P46934_890_928, HD2 P3 library, mean NGS counts over replicate selections
  p3_HD2 mean counts: 285.3
Bait NEDD4_WW_4_P46934_890_928, HD2 P3 library, mean proportion of NGS counts
  p3_HD2 count proportions: 0.005597
Bait NEDD4_WW_4_P46934_890_928, HD2 P8 cytoplasm sublibrary, confidence level (4 = High, 2-3 = Medium, 1 = Low)
  HD2_cytoplasm confidence: 4

## MDDLDALLADLESTTSHIS
[15]
  motif_found: FALSE

## MDVFMKGLSKAKEGVVAAA [SNCA]
[1]
  motif_found: FALSE

## MSARPSLPPLPAKPAG
[11]
  HD confidence: 2
Bait ANKRA2_Ank__Q9H9E1_142_313, library HD2 P8
  HD2 confidence: 2
[12]
  HD count proportions: 0.0001907
[13]
  HD mean counts: 3.25

## MSIETLLEAARFLEWQAQQQ
[8]
  motif_found: FALSE

## MSSLYPSLEDLKVDQA
Bait PDCD6IP_Alix-V-domain__Q8WUM4_360_702
  HD confidence: 2
Bait PDCD6IP_Alix-V-domain__Q8WUM4_360_702, library HD2 P3
  p3_HD2 confidence: 3
Bait PDCD6IP_Alix-V-domain__Q8WUM4_360_702, library HD2 P3, mean normalised NGS counts
  p3_HD2 count proportions: 0.4191
Bait PDCD6IP_Alix-V-domain__Q8WUM4_360_702, library HD2 P3, mean raw NGS counts, all selections
  p3_HD2 mean counts: 20392.666666666668
Bait PDCD6IP_Alix-V-domain__Q8WUM4_360_702, library HD2 P8
  HD2 confidence: 4
Bait PDCD6IP_Alix-V-domain__Q8WUM4_360_702, library HD2 P8 nucleocytoplasmic
  HD2_nc confidence: 3
Bait PDCD6IP_Alix-V-domain__Q8WUM4_360_702, library HD2 P8 nucleocytoplasmic, mean normalised NGS counts
  HD2_nc count proportions: 0.343
Bait PDCD6IP_Alix-V-domain__Q8WUM4_360_702, library HD2 P8 nucleocytoplasmic, mean raw NGS counts, all selections
  HD2_nc mean counts: 24438.333333333332
Bait PDCD6IP_Alix-V-domain__Q8WUM4_360_702, mean normalised NGS counts
  HD count proportions: 0.4404
Bait PDCD6IP_Alix-V-domain__Q8WUM4_360_702, mean raw NGS counts, all selections
  HD mean counts: 2175.8

## NATRQQQLEWDDSTLSY-----
[17]
  motif_found: FALSE

## NDIDEVIIPTAPLYKQILNL [TSG101 319-324]
HD2 library, bait TSG101_UEV__Q99816_1_145, benchmark motif instance, in_library_check FALSE, in_library_coverage 0
  motif_found: FALSE

## NEEINIASSDSEVEIVGVQEHARC
HD2 library, bait SUMO1_SUMO__P63165_1_101, known motif instance of the benchmarking set found (TRUE) or not found (FALSE) among selected peptides
  motif_found: FALSE

## NGAEDDDDDEFGEFGGFSEVS [AFTPH]
[18]
  motif_found: FALSE

## NGSSSVNWPPEFRPGEPWKGYPNIDPET
[7]
  motif_found: FALSE

## NHWQKIRTMVNLPVISPFK [ITPKA 165-183]
[14]
  motif_found: FALSE

## NIHNSKAPKKNRLRRKSSTR
[19]
  motif_found: FALSE

## NKKVEVIDLTIDSSSD
Bait SUMO1_SUMO__P63165_1_101, HD2 library, confidence level (1-4) of best matching selected peptide
  best_confidence: 4
Bait SUMO1_SUMO__P63165_1_101, HD2 library, specificity score of best matching selected peptide
  best_specificity: 1
Bait SUMO1_SUMO__P63165_1_101, HD2 library, whether the validated benchmark motif instance was recovered in the ProP-PD selection (TRUE/FALSE)
  motif_found: TRUE

## NLEEKKRYDREFLLGFQFIFA
Library HD2, bait EIF4E_eIF4E__P06730_1_217, whether the validated benchmark motif instance was recovered in the ProP-PD selection (TRUE/FALSE)
  motif_found: FALSE

## NLNGTIKDDFSEFDNLRTSKKTAE [EPN2]
[18]
  motif_found: FALSE

## NLQLPSLDEQVIPARL
[11]
  HD confidence: 3
[12]
  HD count proportions: 0.0005556
[13]
  HD mean counts: 7.75

## NMTPYRSPPPYVPP----
Bait NEDD4_WW_4 (P46934 890-928), HD2 library, benchmark motif instance recovered in the ProP-PD selection (TRUE/FALSE)
  motif_found: FALSE
[9]
  motif_found: FALSE

## NPFLAPGAPATSAPVN
[2]
  best_specificity: 1
[3]
  best_confidence: 3
[4]
  motif_found: TRUE

## NPNAKEFVPGVKYGNI
[5]
  best_confidence: 2
[6]
  best_specificity: 1
[7]
  motif_found: TRUE

## NRVAYIEFPPPPPLDADQI
Library HD2, bait VASP_EVH1__P50552_1_114, validated benchmark motif instance, in_library_check TRUE, TRUE/FALSE = instance recovered in ProP-PD selection
  motif_found: FALSE

## NSVTSTNLEWDDSAIAPSSEDYDF
[17]
  motif_found: FALSE

## NTPSGKSDDDFADFHSSKFSS [SYNRG]
[18]
  motif_found: FALSE

## NVQRLLEAAEFLERRE
Bait SIN3A_PAH__Q96ST3_295_383, HD2 library, confidence level (1-4) of best matching selected peptide
  best_confidence: 3
Bait SIN3A_PAH__Q96ST3_295_383, HD2 library, specificity score of best matching selected peptide
  best_specificity: 0.6
[8]
  motif_found: TRUE

## NYCPPVKRERTSSL
[19]
  motif_found: FALSE

## NYPFTWNTPSAPPGYNIAVK
HD2 library, bait TSG101_UEV__Q99816_1_145, known motif instance of the benchmarking set found (TRUE) or not found (FALSE) among selected peptides
  motif_found: FALSE

## PAAAAANELNNNLPGGAPAA
Bait SPSB1_SPRY__Q96BD6_30_231, HD2 library, whether the validated benchmark motif instance was recovered in the ProP-PD selection (TRUE/FALSE)
  motif_found: FALSE
